{
  "source": "patent US5157052A",
  "about": "“Method for inhibiting IgE production” (priority 1990, dated 1992)",
  "type_in_all_cases": "in vivo, mouse (Balb/c female)",
  "key": {"[1]": {"system": "IgG1", "assay": "Serum IgG1 in anti-IgD stimulated mice (two site sandwich ELISA, Assay B)"}, "[2]": {"system": "leukocyte membrane proteins", "assay": "Cell surface density or distribution of leukocyte membrane proteins, overall"}, "[3]": {"system": "IL-2 receptor", "assay": "Splenocyte cell surface density/distribution (FACS): IL-2 receptor", "description": "Another (Group B) is injected with 20 μg (±) methyl 11α,16-dihydroxy-16-methyl-9-oxoprosta-5Z,13E-dien-1-oate as in Example 13. […] A 3 cm incision is made with a scalpel above the left hip, and the spleen is cut free from adjoining tissue and placed in a 100 mn plastic culture dish containing 10 ml PBS. The splenic cells are then made into a suspension, by rubbing the spleens between the rough, frosted ends of microscope slides repeatedly until the only remaining particulate matter is connective tissue. Cells are transferred to a 15 ml conical polystyrene tube and centrifuged in a centrifuge at 1200 rpm for 5 minutes. The supernatant is discarded by aspiration and the cell pellet is resuspended in 10 ml PBS, then centrifuged at 1200 rpm for 5 minutes. The supernatant is aspirated and the cell pellet is resuspended in 15 mM Tris, 140 mM Ammonium Chloride, to lyse red blood cells. After incubating at room temperature for 10 minutes the cell suspension is centrifuged at 1200 rpm for 10 minutes. The supernatant is discarded and the cell pellet is resuspended in 10 ml FACS Buffer (PBS containing 0.1% BSA and 0.1% Sodium Azide). The cell suspension is filtered through sterile glass wool plugged in the top of a pasteur pipet. Cells in the flow through are counted using a hemacytometer, then the cell suspension is centrifuged at 1200 rpm for 5 minutes. The supernatant is discarded and the cell pellet is resuspended in a volume of FACS Buffer that will yield 4×10^7 cells/ml. 10 μl (4×10^5 cells) is added to each well of a 96-well V-bottom plate. 25 μl of diluted monoclonal antibody directed against splenocyte cell surface proteins is added to each well: Major Histocompatability Complex (MHC) Class II (M5114, ATCC, Rockville Md.), MHC Class I (M1/42, ATCC), Anti-IgD (JA12.5, ATCC, Rockville, Md.), Thymocyte (Thy)-1 (JIJ, ATCC), B220 (14.8, ATCC), Kappa light chain (187, ATCC), IL-2 Receptor (7D4, ATCC), Lyt-1 (7.313, ATCC) and CD23 (biotinylated B3B4) and incubated on ice for 30 minutes. 100 μl 10% BSA 0.1% sodium azide is added to each well, then the plates are centrifuged at 1200 rpm for 10 minutes. The liquid is removed by aspiration and the cell pellets are resuspended in 100 μl FACS Buffer, and centrifuged at 1200 rpm for 5 minutes. […] Samples are transferred to individual tubes and 10,000 cells are analyzed. Using the Lysis software (Becton Dickinson, Mountain View, Calif.) the mean channel log fluorescence and percent positive cells are determined for the entire cell population. […]"}, "[4]": {"system": "Lyt 1", "assay": "Splenocyte cell surface density/distribution (FACS): Lyt 1"}},
  "data": [
    {"compound": "CCCCC(C)(O)C/C=C/[C@H]1[C@H](O)CC(=O)[C@@H]1C/C=C\\CCCC(=O)OC", "note": "(mixture of isomers) [(±) methyl 11α,16-dihydroxy-16-methyl-9-oxoprosta-5Z,13E-dien-1-oate]", "values": [
      {"measurement": "IgG1 ± SD", "setting": "[1]; 2 μg IP days 3 and 4, day 7 (control 4808)", "result": "3220 ± 985", "unit": "µg/mL"},
      {"measurement": "IgG1 ± SD", "setting": "[1]; 2 μg IP days 3 and 4, day 8 (control 13818)", "result": "12947 ± 2195", "unit": "µg/mL"},
      {"measurement": "IgG1 ± SD", "setting": "[1]; 2 μg IP days 3 and 4, day 9 (control 17700)", "result": "19938 ± 3279", "unit": "µg/mL"},
      {"measurement": "IgG1 ± SD", "setting": "[1]; 2 μg IP days 3 and 4, day 11 (control 17100)", "result": "17589 ± 1923", "unit": "µg/mL"},
      {"measurement": "IgG1 ± SD", "setting": "[1]; 2 μg IP days 3 and 4, day -1 baseline before treatment", "result": "215 ± 124", "unit": "µg/mL"},
      {"measurement": "IgG1 ± SD", "setting": "[1]; 5 μg IP days 3 and 4, day 7", "result": "6902 ± 3604", "unit": "µg/mL"},
      {"measurement": "IgG1 ± SD", "setting": "[1]; 5 μg IP days 3 and 4, day 8", "result": "18202 ± 5327", "unit": "µg/mL"},
      {"measurement": "IgG1 ± SD", "setting": "[1]; 5 μg IP days 3 and 4, day 9", "result": "27069 ± 3257", "unit": "µg/mL"},
      {"measurement": "IgG1 ± SD", "setting": "[1]; 5 μg IP days 3 and 4, day 11", "result": "23205 ± 6506", "unit": "µg/mL"},
      {"measurement": "IgG1 ± SD", "setting": "[1]; 5 μg IP days 3 and 4, day -1 baseline before treatment", "result": "248 ± 189", "unit": "µg/mL"},
      {"measurement": "IgG1 ± SD", "setting": "[1]; 10 μg IP days 3 and 4, day 7", "result": "6952 ± 3410", "unit": "µg/mL"},
      {"measurement": "IgG1 ± SD", "setting": "[1]; 10 μg IP days 3 and 4, day 8", "result": "17649 ± 3158", "unit": "µg/mL"},
      {"measurement": "IgG1 ± SD", "setting": "[1]; 10 μg IP days 3 and 4, day 9", "result": "26978 ± 11752", "unit": "µg/mL"},
      {"measurement": "IgG1 ± SD", "setting": "[1]; 10 μg IP days 3 and 4, day 11", "result": "26361 ± 6660", "unit": "µg/mL"},
      {"measurement": "IgG1 ± SD", "setting": "[1]; 10 μg IP days 3 and 4, day -1 baseline before treatment", "result": "166 ± 14", "unit": "µg/mL"},
      {"measurement": "IgG1 ± SD", "setting": "[1]; 20 μg IP days 3 and 4, day 7", "result": "6816 ± 3349", "unit": "µg/mL"},
      {"measurement": "IgG1 ± SD", "setting": "[1]; 20 μg IP days 3 and 4, day 8", "result": "16838 ± 4174", "unit": "µg/mL"},
      {"measurement": "IgG1 ± SD", "setting": "[1]; 20 μg IP days 3 and 4, day 9", "result": "23900 ± 11791", "unit": "µg/mL"},
      {"measurement": "IgG1 ± SD", "setting": "[1]; 20 μg IP days 3 and 4, day 11", "result": "24998 ± 7169", "unit": "µg/mL"},
      {"measurement": "IgG1 ± SD", "setting": "[1]; 20 μg IP days 3 and 4, day -1 baseline before treatment", "result": "255 ± 66", "unit": "µg/mL"},
      {"measurement": "IgG1 ± SD", "setting": "[1]; 40 μg IP days 3 and 4, day 7", "result": "5168 ± 2391", "unit": "µg/mL"},
      {"measurement": "IgG1 ± SD", "setting": "[1]; 40 μg IP days 3 and 4, day 9", "result": "24337 ± 4729", "unit": "µg/mL"},
      {"measurement": "IgG1 ± SD", "setting": "[1]; 40 μg IP days 3 and 4, day 11", "result": "25930 ± 4376", "unit": "µg/mL"},
      {"measurement": "cell surface density and distribution", "setting": "[2]; anti-IgD stimulated mice, 20 μg days 3 and 4, day 7", "result": "identical cell surface density and distribution as the PBS treated group"},
      {"measurement": "cell surface density and distribution", "setting": "[2]; unstimulated mice, 20 μg", "result": "does not effect basal cell surface density or distribution of leukocyte membrane proteins"},
      {"measurement": "Percentage Positive Cells", "setting": "[3]; anti-IgD stimulated mice, 20 μg days 3 and 4, day 7 (PBS 18.4)", "result": "23 ± 7.7", "unit": "%"},
      {"measurement": "Mean Channel Log Fluorescence", "setting": "[3]; anti-IgD stimulated mice, 20 μg days 3 and 4, day 7 (PBS 101)", "result": "97 ± 1.5"},
      {"measurement": "Percentage Positive Cells", "setting": "[3]; unstimulated mice, 20 μg (PBS 2.4)", "result": "2.7 ± 0.3", "unit": "%"},
      {"measurement": "Mean Channel Log Fluorescence", "setting": "[3]; unstimulated mice, 20 μg (PBS 98)", "result": "96 ± 1"},
      {"measurement": "Percentage Positive Cells", "setting": "[4]; anti-IgD stimulated mice, 20 μg days 3 and 4, day 7 (PBS 31.3)", "result": "30.4 ± 8.8", "unit": "%"},
      {"measurement": "Mean Channel Log Fluorescence", "setting": "[4]; anti-IgD stimulated mice, 20 μg days 3 and 4, day 7 (PBS 110)", "result": "109 ± 2"},
      {"measurement": "Percentage Positive Cells", "setting": "[4]; unstimulated mice, 20 μg (PBS 31)", "result": "44.5 ± 7", "unit": "%"},
      {"measurement": "Mean Channel Log Fluorescence", "setting": "[4]; unstimulated mice, 20 μg (PBS 110)", "result": "117 ± 6"}
    ]}
  ]
}
